# Data: patent publication US12203941B2, “Methods and compositions for diagnosis and prognosis of renal injury and renal failure” (ASTUTE MEDICAL, INC., priority 2013, dated 2025)
# Like-named read-outs stand apart in the source and are kept apart here.
# Experiments:
# [1] = system: critically ill patients with either stage I or II Acute Kidney Injury Network (AKIN) criteria; conditions: for Urine volume, Hour 1: Hour 1 after FST; for Urine volume, Hour 1 / Urine volume, Hour 2 / Urine volume, Hour 3 / Urine volume, Hour 4 / Urine volume, Hour 5 / Urine volume, Hour 6: mean (s.e.); for Urine volume, Hour 2: Hour 2 after FST; for Urine volume, Hour 3: Hour 3 after FST; for Urine volume, Hour 4: Hour 4 after FST; for Urine volume, Hour 5: Hour 5 after FST; for Urine volume, Hour 6: Hour 6 after FST; for Tolerability / adverse events attributable to the FST: critically ill patients with AKI, well-resuscitated, iv furosemide 1.0 or 1.5 mg/kg, urine output replaced with isotonic fluids when appropriate
# Excerpt: Replacement fluid was not protocolized in this group of subjects. Demographic, clinical data, urine sediment scores, and outcome data were abstracted from the case report forms.
# Prior to FST urine was collected. […] In order to minimize the risk of hypovolemia, urine output was replaced ml for ml each hour with either Ringers lactate or normal saline for six hours after the FST. The treating team could elect not to replace the volume if net volume loss was considered clinically desirable.
# Urine output was measured hourly for six hours and in total for 24 hours. […] Patients were followed for 14 days or hospital discharge, whichever occurred first. Fractional excretion of sodium was calculated as described in Bagshaw and colleagues. MDRD equation was used to calculate the eGFR as described in Levey and colleagues. Cardiovascular SOFA score and APACHE II score were calculated as previously described.
# patients without AKI = conditions: previous investigators; cited from earlier work
compound,measurement,setting,value
NS(=O)(=O)c1cc(C(=O)O)c(NCc2ccco2)cc1Cl [Furosemide],"Urine volume, Hour 1","[1]; Combined n = 77, furosemide 1.0 or 1.5 mg/kg iv",251 (35.2) ml
same,"Urine volume, Hour 1",[1]; Furosemide Naive n = 29,331 (68.5) ml
same,"Urine volume, Hour 1",[1]; Non-naive N = 48,258 (37.2) ml
same,"Urine volume, Hour 2",[1]; Combined n = 77,296 (35.8) ml
same,"Urine volume, Hour 2",[1]; Furosemide Naive n = 29,348 (66.6) ml
same,"Urine volume, Hour 2",[1]; Non-naive N = 48,264 (40.9) ml
same,"Urine volume, Hour 3",[1]; Combined n = 77,246 (26.6) ml
same,"Urine volume, Hour 3",[1]; Furosemide Naive n = 29,285 (52.1) ml
same,"Urine volume, Hour 3",[1]; Non-naive N = 48,223 (28.6) ml
same,"Urine volume, Hour 4",[1]; Combined n = 77,207 (24.1) ml
same,"Urine volume, Hour 4",[1]; Furosemide Naive n = 29,240 (48.6) ml
same,"Urine volume, Hour 4",[1]; Non-naive N = 48,188 (25.4) ml
same,"Urine volume, Hour 5",[1]; Combined n = 77,175 (18.6) ml
same,"Urine volume, Hour 5",[1]; Furosemide Naive n = 29,204 (35.9) ml
same,"Urine volume, Hour 5",[1]; Non-naive N = 48,157 (22.5) ml
same,"Urine volume, Hour 6",[1]; Combined n = 77,155 (17.4) ml
same,"Urine volume, Hour 6",[1]; Furosemide Naive n = 29,167 (33.6) ml
same,"Urine volume, Hour 6",[1]; Non-naive N = 48,147 (19.6) ml
same,Tolerability / adverse events attributable to the FST,[1],these complications were not observed in this study
same,Tolerability / adverse events attributable to the FST,[1]; listed as furosemide,well tolerated with no episodes of hypotension or any other adverse event deemed attributable to the test
same,Time of maximum urine flow rate (UFR) after FST,[1]; hourly urine output for six hours after iv furosemide,within the first two to three hours
same,Mean UO in response to the challenge,[1]; in 6 hours after FST,over 1.3 liters
same,Time of maximum diuretic effect,patients without AKI,within the first three hours
